Measurements taken from patent publication US12310973B2, “Administration and dosage of diaminophenothiazines” (WisTa Laboratories Ltd., priority 2016, dated 2025).

System: mild to moderate AD patients
Test: Phase 3 trial in mild to moderate AD: safety outcomes (adverse events)
Assay type: in vivo, human
Conditions: for Maximum mean change in haemoglobin from baseline: at 6 weeks
Procedure: Patients were monitored throughout for adverse events (AEs) and clinical laboratory testing, physical and neurological examinations and 12-lead electrocardiograms were performed at all clinic visits (screening, baseline and Weeks 2, 6, 13, 26, 39, 52, 65 and 69). Patients were also assessed at all visits for suicidal ideation and intent, and were systematically assessed for signs of serotonin toxicity.

[1] = high dose LMTM (75 or 125 mg b.i.d.)

CN(C)c1ccc2c(c1)Sc1cc(N(C)C)ccc1N2 [LMTM, leuco-methythioninium bis(hydromethanesulfonate)]
Maximum mean change in haemoglobin from baseline (4 mg b.i.d.): -0.01 g/L | AESI: ARIA, % (75 mg b.i.d. (n = 267)): (1.5) % | AESI: Methemoglobinemia, hemolytic anemia, and/or Heinz bodies, % (75 mg b.i.d. (n = 267)): (0) % | AESI: “Serotonin syndrome”, % (75 mg b.i.d. (n = 267)): (0.7) % | Anemia, % of patients (75 mg b.i.d. (n = 267)): (8.2%) | Anemia, number of patients (75 mg b.i.d. (n = 267)): 22 | At least one TEAE, % of patients (75 mg b.i.d. (n = 267)): (83.9%) | At least one TEAE, number of patients (75 mg b.i.d. (n = 267)): 224 | Blood and lymphatic system disorders, % of patients (75 mg b.i.d. (n = 267)): (10.9%) | Blood and lymphatic system disorders, number of patients (75 mg b.i.d. (n = 267)): 29 | Blood folate decreased, % of patients (75 mg b.i.d. (n = 267)): (6.7%) | Blood folate decreased, number of patients (75 mg b.i.d. (n = 267)): 18 | Cough, % of patients (75 mg b.i.d. (n = 267)): (5.2%) | Cough, number of patients (75 mg b.i.d. (n = 267)): 14 | Deaths, % (75 mg b.i.d. (n = 267)): (1.1) % | Diarrhea, % of patients (75 mg b.i.d. (n = 267)): (23.6%) | Diarrhea, number of patients (75 mg b.i.d. (n = 267)): 63 | Dysuria, % of patients (75 mg b.i.d. (n = 267)): (2.6%) | Dysuria, number of patients (75 mg b.i.d. (n = 267)): 7 | Gastrointestinal disorders, % of patients (75 mg b.i.d. (n = 267)): (39.3%) | Gastrointestinal disorders, number of patients (75 mg b.i.d. (n = 267)): 105 | Infections and infestations, % of patients (75 mg b.i.d. (n = 267)): (31.1%) | Infections and infestations, number of patients (75 mg b.i.d. (n = 267)): 83 | Investigations, % of patients (75 mg b.i.d. (n = 267)): (32.6%) | Investigations, number of patients (75 mg b.i.d. (n = 267)): 87 | Nausea, % of patients (75 mg b.i.d. (n = 267)): (8.2%) | Nausea, number of patients (75 mg b.i.d. (n = 267)): 22 | Other SUSARs, % (75 mg b.i.d. (n = 267)): (0.7) % | Pollakiuria, % of patients (75 mg b.i.d. (n = 267)): (5.6%) | Pollakiuria, number of patients (75 mg b.i.d. (n = 267)): 15 | Renal and urinary disorders, % of patients (75 mg b.i.d. (n = 267)): (22.8%) | Renal and urinary disorders, number of patients (75 mg b.i.d. (n = 267)): 61 | Respiratory, thoracic and mediastinal disorders, % of patients (75 mg b.i.d. (n = 267)): (12.0%) | Respiratory, thoracic and mediastinal disorders, number of patients (75 mg b.i.d. (n = 267)): 32 | Urinary incontinence, % of patients (75 mg b.i.d. (n = 267)): (6.7%) | Urinary incontinence, number of patients (75 mg b.i.d. (n = 267)): 18 | Urinary tract infection, % of patients (75 mg b.i.d. (n = 267)): (10.9%) | Urinary tract infection, number of patients (75 mg b.i.d. (n = 267)): 29 | Vomiting, % of patients (75 mg b.i.d. (n = 267)): (9.4%) | Vomiting, number of patients (75 mg b.i.d. (n = 267)): 25 | Maximum mean change in haemoglobin from baseline (75 mg b.i.d.): -0.47 g/L | AESI: ARIA, % (125 mg b.i.d. (n = 264)): (0.4) % | AESI: Methemoglobinemia, hemolytic anemia, and/or Heinz bodies, % (125 mg b.i.d. (n = 264)): (0.4) % | AESI: “Serotonin syndrome”, % (125 mg b.i.d. (n = 264)): (0) % | Anemia, % of patients (125 mg b.i.d. (n = 264)): (5.7%) | Anemia, number of patients (125 mg b.i.d. (n = 264)): 15 | At least one TEAE, % of patients (125 mg b.i.d. (n = 264)): (86.7%) | At least one TEAE, number of patients (125 mg b.i.d. (n = 264)): 229 | Blood and lymphatic system disorders, % of patients (125 mg b.i.d. (n = 264)): (9.5%) | Blood and lymphatic system disorders, number of patients (125 mg b.i.d. (n = 264)): 25 | Blood folate decreased, % of patients (125 mg b.i.d. (n = 264)): (7.2%) | Blood folate decreased, number of patients (125 mg b.i.d. (n = 264)): 19 | Cough, % of patients (125 mg b.i.d. (n = 264)): (4.2%) | Cough, number of patients (125 mg b.i.d. (n = 264)): 11 | Deaths, % (125 mg b.i.d. (n = 264)): (1.1) % | Diarrhea, % of patients (125 mg b.i.d. (n = 264)): (25.4%) | Diarrhea, number of patients (125 mg b.i.d. (n = 264)): 67 | Dysuria, % of patients (125 mg b.i.d. (n = 264)): (10.2%) | Dysuria, number of patients (125 mg b.i.d. (n = 264)): 27 | Gastrointestinal disorders, % of patients (125 mg b.i.d. (n = 264)): (42.0%) | Gastrointestinal disorders, number of patients (125 mg b.i.d. (n = 264)): 111 | Infections and infestations, % of patients (125 mg b.i.d. (n = 264)): (28.8%) | Infections and infestations, number of patients (125 mg b.i.d. (n = 264)): 76 | Investigations, % of patients (125 mg b.i.d. (n = 264)): (30.3%) | Investigations, number of patients (125 mg b.i.d. (n = 264)): 80 | Nausea, % of patients (125 mg b.i.d. (n = 264)): (7.2%) | Nausea, number of patients (125 mg b.i.d. (n = 264)): 19 | Other SUSARs, % (125 mg b.i.d. (n = 264)): (1.5) % | Pollakiuria, % of patients (125 mg b.i.d. (n = 264)): (6.8%) | Pollakiuria, number of patients (125 mg b.i.d. (n = 264)): 18 | Renal and urinary disorders, % of patients (125 mg b.i.d. (n = 264)): (24.6%) | Renal and urinary disorders, number of patients (125 mg b.i.d. (n = 264)): 65 | Respiratory, thoracic and mediastinal disorders, % of patients (125 mg b.i.d. (n = 264)): (8.3%) | Respiratory, thoracic and mediastinal disorders, number of patients (125 mg b.i.d. (n = 264)): 22 | Urinary incontinence, % of patients (125 mg b.i.d. (n = 264)): (4.5%) | Urinary incontinence, number of patients (125 mg b.i.d. (n = 264)): 12 | Urinary tract infection, % of patients (125 mg b.i.d. (n = 264)): (9.8%) | Urinary tract infection, number of patients (125 mg b.i.d. (n = 264)): 26 | Vomiting, % of patients (125 mg b.i.d. (n = 264)): (6.8%) | Vomiting, number of patients (125 mg b.i.d. (n = 264)): 18 | Maximum mean change in haemoglobin from baseline (125 mg b.i.d.): -0.93 g/L | Non-fatal SAEs possibly related to treatment (% of the cases, all arms): 14% | Patients with transient responses indicating a wish to be dead (Columbia Suicide Severity Rating Scale) (all arms): 26 patients | Patients with one or more other non-fatal serious adverse events (SAEs) (all arms, evenly distributed between the three treatment groups): 97 patients | Patients who developed ARIA during the study, frequency (all arms, no dose relationship): < 1% | Patients who developed ARIA during the study, total (all arms, no dose relationship): 8 patients | Patients who died during the study (all arms, none related to treatment): 9 patients | Haemolytic anemia cases (all doses): no case of haemolytic anemia | Patients with transient symptoms consistent with serotonergic excess (both treated with LMTM 75 mg b.i.d., no concomitant serotonergic drug): 2 patients | AESI: ARIA, % (control 4 mg b.i.d. (n = 354)): (0.8) % | AESI: Methemoglobinemia, hemolytic anemia, and/or Heinz bodies, % (control 4 mg b.i.d. (n = 354)): (0.3) % | AESI: “Serotonin syndrome”, % (control 4 mg b.i.d. (n = 354)): (0) % | Anemia, % of patients (control 4 mg b.i.d. (n = 354)): (2.8%) | Anemia, number of patients (control 4 mg b.i.d. (n = 354)): 10 | At least one TEAE, % of patients (control 4 mg b.i.d. (n = 354)): (83.6%) | At least one TEAE, number of patients (control 4 mg b.i.d. (n = 354)): 296 | Blood and lymphatic system disorders, % of patients (control 4 mg b.i.d. (n = 354)): (4.8%) | Blood and lymphatic system disorders, number of patients (control 4 mg b.i.d. (n = 354)): 17 | Blood folate decreased, % of patients (control 4 mg b.i.d. (n = 354)): (5.9%) | Blood folate decreased, number of patients (control 4 mg b.i.d. (n = 354)): 21 | Cough, % of patients (control 4 mg b.i.d. (n = 354)): (3.4%) | Cough, number of patients (control 4 mg b.i.d. (n = 354)): 12 | Deaths, % (control 4 mg b.i.d. (n = 354)): (0.8) % | Diarrhea, % of patients (control 4 mg b.i.d. (n = 354)): (9.3%) | Diarrhea, number of patients (control 4 mg b.i.d. (n = 354)): 33 | Dysuria, % of patients (control 4 mg b.i.d. (n = 354)): (0.8%) | Dysuria, number of patients (control 4 mg b.i.d. (n = 354)): 3 | Gastrointestinal disorders, % of patients (control 4 mg b.i.d. (n = 354)): (24.6%) | Gastrointestinal disorders, number of patients (control 4 mg b.i.d. (n = 354)): 87 | Infections and infestations, % of patients (control 4 mg b.i.d. (n = 354)): (24.9%) | Infections and infestations, number of patients (control 4 mg b.i.d. (n = 354)): 88 | Investigations, % of patients (control 4 mg b.i.d. (n = 354)): (22.6%) | Investigations, number of patients (control 4 mg b.i.d. (n = 354)): 80 | Nausea, % of patients (control 4 mg b.i.d. (n = 354)): (4.0%) | Nausea, number of patients (control 4 mg b.i.d. (n = 354)): 14 | Other SUSARs, % (control 4 mg b.i.d. (n = 354)): (0.6) % | Pollakiuria, % of patients (control 4 mg b.i.d. (n = 354)): (1.7%) | Pollakiuria, number of patients (control 4 mg b.i.d. (n = 354)): 6 | Renal and urinary disorders, % of patients (control 4 mg b.i.d. (n = 354)): (8.2%) | Renal and urinary disorders, number of patients (control 4 mg b.i.d. (n = 354)): 29 | Respiratory, thoracic and mediastinal disorders, % of patients (control 4 mg b.i.d. (n = 354)): (7.9%) | Respiratory, thoracic and mediastinal disorders, number of patients (control 4 mg b.i.d. (n = 354)): 28 | Urinary incontinence, % of patients (control 4 mg b.i.d. (n = 354)): (2.5%) | Urinary incontinence, number of patients (control 4 mg b.i.d. (n = 354)): 9 | Urinary tract infection, % of patients (control 4 mg b.i.d. (n = 354)): (8.2%) | Urinary tract infection, number of patients (control 4 mg b.i.d. (n = 354)): 29 | Vomiting, % of patients (control 4 mg b.i.d. (n = 354)): (0.6%) | Vomiting, number of patients (control 4 mg b.i.d. (n = 354)): 2 | Patients with anaemia-related adverse event terms (grouped) (control (4 mg b.i.d.)): 16% | Convulsion (SAE possibly related to treatment), cases (control arm (4 mg b.i.d.)): 4 | Patients discontinuing for gastrointestinal or urinary adverse events (control patients (4 mg b.i.d.)): 1-2% | Patients with anaemia-related adverse event terms (grouped) (high dose LMTM): 22% | Patients discontinuing for gastrointestinal adverse events [1]: 9% | Patients discontinuing for urinary tract adverse events [1]: 3% | Incidence of gastrointestinal adverse events with co-medication (patients also receiving acetylcholinesterase inhibitors (data not shown)): about two-fold higher
